For the assay, the system named is hGH-RH(1-29)NH2 induced GH release. As to the kind of experiment: Inhibition of GH release in superfused rat pituitary system. In kind it is cell-based. Conditions: antagonist 30 nM; for GH response (% of control) 0 min: 1 nM hGH-RH(1-29)NH2 at 0 min; for GH response (% of control) 30 min: 1 nM hGH-RH(1-29)NH2 at 30 min; for GH response (% of control) 60 min: 1 nM hGH-RH(1-29)NH2 at 60 min; for GH response (% of control) 90 min: 1 nM hGH-RH(1-29)NH2 at 90 min; for GH response (% of control) 120 min: 1 nM hGH-RH(1-29)NH2 at 120 min. As for the experimental part:
The analogs were tested in vitro in a test described earlier (S. Vigh and A. V Schally, Peptides 5:241-[…], 1984) with modification (Z. Rekasi and A. V. Schally, P.N.A.S. 90:2146-2149, 1993).
Briefly, the cells are preincubated with peptides for 9 minutes (3 mL) at various concentrations. Immediately after the incubation, 1 nM hGH-RH(1-29)NH2 is administered for 3 minutes (1 mL) 10 minute response). To check the duration of the antagonistic effect of the analogue, 1 nM hGH-RH(1-29)NH2 is applied 30, 60, 90, and 120 minutes later for 3 minutes [30, 60, 90, 120 min responses]. Net integral values of the GH responses are evaluated. GH responses are compared to and expressed as percent of the original GH response induced by 1 nM GH-RH(1-29)NH2 The effect of the new antagonists are compared to that of [Ac-Tyr^1, D-Arg^2]hGH-RH(1-29)NH2, the “Standard antagonist”.
Rat GH levels in aliquots of undiluted and diluted superfusion samples were measured by double-antibody radioimmunoassay using materials supplied by the National Hormone and Pituitary Program, Baltimore, Md. The results of RIA were analyzed with a computer program developed in our institute (V. Csernus and A. V. Schally, in Neuroendocrine Research Methods, Harwood Academic (Greenstein, B. D. ed., London, pp. 71-109, 1991), hereby incorporated by reference.

“And” between values parts separate entries of the source, which are not always exact repeats. Equal values may be shown once. Square brackets hold non-standard residues; d marks the D form. Peptide text beside a SMILES is read from it. * marks the point of attachment. Phe(4-Cl) = N[C@@H](Cc1ccc(Cl)cc1)C(=O)O; hArg = N=C(N)NCCCC[C@H](N)C(=O)O; Nle = CCCC[C@H](N)C(=O)O; Abu = CC[C@H](N)C(=O)O; PhAc = O=C(Cc1ccccc1)*

With “[PhAc-Tyr^1, D-Arg^2, Phe(pCl)^6, Arg^9, Abu^15, Nle^27, D-Arg^28, Har^29]hGH-RH(1-29)NHEt [Peptide 48]”, the “GH response (% of control) 0 min” value is recorded as 22 % of control, the “GH response (% of control) 30 min” value is given as 21 % of control, the “GH response (% of control) 60 min” value is 44 % of control and the “GH response (% of control) 90 min” value is reported as 44 % of control. Also, the “GH response (% of control) 120 min” value is recorded as 47 % of control.
As to “[PhAc-Tyr^1, D-Arg^2, Phe(pCl)^5, Har^9, Tyr(Me)^10, Cit^11, Abu^15, Nle^27, D-Arg^28, Har^29]hGH-RH(1-29)NH2 [Peptide 65]”, the “GH response (% of control) 0 min” value is listed as 67 % of control, the “GH response (% of control) 30 min” value is 80 % of control, the “GH response (% of control) 60 min” value is recorded as 89 % of control and the “GH response (% of control) 90 min” value is reported as 97 % of control. Also, the “GH response (% of control) 120 min” value is given as 79 % of control.
On the same counts, the results for `CCCC[C@H](NC(=O)[C@@H](NC(=O)[C@H](CC(=O)O)NC(=O)[C@H](CCC(N)=O)NC(=O)[C@H](CC(C)C)NC(=O)[C@H](CC(C)C)NC(=O)[C@H](CCCCN)NC(=O)[C@H](CCCNC(=N)N)NC(=O)[C@H](C)NC(=O)[C@H](CO)NC(=O)[C@H](CC(C)C)NC(=O)[C@H](CCC(N)=O)NC(=O)[C@H](CC)NC(=O)[C@H](CC(C)C)NC(=O)[C@@H](NC(=O)[C@H](CCCCNC(=N)N)NC(=O)[C@H](CCCNC(=N)N)NC(=O)[C@H](Cc1ccc(O)cc1)NC(=O)[C@H](CCCNC(=N)N)NC(=O)[C@H](CC(N)=O)NC(=O)[C@@H](NC(=O)[C@H](Cc1ccc(Cl)cc1)NC(=O)[C@@H](NC(=O)[C@H](C)NC(=O)[C@H](CC(=O)O)NC(=O)[C@@H](CCCNC(=N)N)NC(=O)[C@H](Cc1ccc(O)cc1)NC(=O)Cc1ccccc1)[C@@H](C)CC)[C@@H](C)O)C(C)C)[C@@H](C)CC)C(=O)N[C@H](CCCNC(=N)N)C(=O)N[C@@H](CCCCNC(=N)N)C(N)=O` [Peptide 43, [PhAc-Tyr^1, D-Arg^2, Phe(pC)^6, Arg^9, Har^12, Abu^15, Nle^27, D-Arg^28, Har^29]hGH-RH(1-29)NH2] (PhAc-Y[dR]DAI[Phe(4-Cl)]TNRYR[hArg]VL[Abu]QLSARKLLQDI[Nle][dR][hArg]-NH2) are 82 % of control, 74 % of control, 102 % of control, 72 % of control and 51 % of control.
“[CH3(CH2)4CO-Tyr^1, D-Arg^2, Phe(pCl)^6, Arg^9, Abu^15, Nle^27, D-Arg^28, Har^29]hGH-RH(1-29)NH2 [Peptide 2]”: the “GH response (% of control) 0 min” value was 18 % of control, the “GH response (% of control) 30 min” value is 13 % of control, the “GH response (% of control) 60 min” value is 18 % of control and the “GH response (% of control) 90 min” value was 25 % of control. The “GH response (% of control) 120 min” value was 51 % of control.
For “[Hca-Tyr^1, D-Arg^2, Phe(pCl)^6, Har, Tyr(Me)^10, Abu^15, Nle^27, D-Arg^28, Har^29, Har^30]hGH-RH(1-30)NH2 [Peptide 53]”, the “GH response (% of control) 0 min” value is 43 % of control, the “GH response (% of control) 30 min” value is reported as 42 % of control, the “GH response (% of control) 60 min” value is 40 % of control and the “GH response (% of control) 90 min” value is 36 % of control. Besides, the “GH response (% of control) 120 min” value is listed as 46 % of control.
For “[PhAc-D-Arg^0, D-Arg^2, Phe(pCl)^6, Arg^9, Abu^15, Nle^27, D-Arg^28, Har^29]hGH-RH(1-29)NH2 [Peptide 19]”, the “GH response (% of control) 0 min” value is 62 % of control, the “GH response (% of control) 30 min” value is reported as 64 % of control, the “GH response (% of control) 60 min” value is recorded as 66 % of control and the “GH response (% of control) 90 min” value was 82 % of control. Also, the “GH response (% of control) 120 min” value is reported as 74 % of control.
For “[PhAc-Tyr^1, D-Arg^2, Phe(pCl)^6, Har^9, Tyr(Me)^10, Aib^15, Nle^27, D-Arg^28, Har^29]hGH-RH(1-29)NHEt [Peptide 49]”, in that order: 83 % of control, 76 % of control, 90 % of control, 87 % of control and 120 % of control.
For “[CH3(CH2)14CO-Phe^0, D-Arg^2, Phe(pCl)^6, Arg^9, Abu^15, Nle^27, D-Arg^28, Har^29]hGH-RH(1-29)NH2 [Peptide 16]”, in that order: 40 % of control, 62 % of control, 78 % of control, 73 % of control and 61 % of control.
As to “[Hca-Tyr^1, D-Arg^2, Phe(pCl)^6, Har^9, Tyr(Me)^10, Abu^15, Nle^27, D-Arg^28, Agm^29]hGH-RH(1-29) [Peptide 51]”, the “GH response (% of control) 0 min” value is 64 % of control and 52 % of control and 87 % of control; the “GH response (% of control) 30 min” value was 36 % of control and 43 % of control and 35 % of control; the “GH response (% of control) 60 min” value is 31 % of control and 57 % of control and 46 % of control; the “GH response (% of control) 90 min” value was 56 % of control and 51 % of control. Moreover, the “GH response (% of control) 120 min” value was 58 % of control and 61 % of control.
As for “[CH3(CH2)10CO-Tyr^1, D-Arg^2, Phe(pCl)^6, Arg^9, Abu^15, Nle^27, D-Arg^28, Har^29]hGH-RH(1-29)NH2 [Peptide 8]”, the “GH response (% of control) 0 min” value is 37 % of control, the “GH response (% of control) 30 min” value was 31 % of control, the “GH response (% of control) 60 min” value is reported as 48 % of control and the “GH response (% of control) 90 min” value is given as 44 % of control. The “GH response (% of control) 120 min” value is reported as 40 % of control.
As for “[HOOC(CH2)10CO-Tyr^1, D-Arg^2, Phe(pCl)^6, Arg^9, Abu^15, Nle^27, D-Arg^28, Har^29]hGH-RH(1-29)NH2 [Peptide 9]”, the “GH response (% of control) 0 min” value is reported as 47 % of control, the “GH response (% of control) 30 min” value is reported as 43 % of control, the “GH response (% of control) 60 min” value is reported as 66 % of control and the “GH response (% of control) 90 min” value is reported as 63 % of control. The “GH response (% of control) 120 min” value is reported as 58 % of control.
Regarding “[Hca-Tyr^1, D-Arg^2, Phe(pCl)^6, Har^9, Tyr(Me)^10, Abu^15, Nle^27, D-Arg^28, Har^29]hGH-RH(1-29)NH2 [Peptide 45]”, the “GH response (% of control) 0 min” value was 91 % of control and 100 % of control; the “GH response (% of control) 30 min” value is recorded as 100 % of control; the “GH response (% of control) 60 min” value is 100 % of control; the “GH response (% of control) 90 min” value was 100 % of control. For the same molecule, the “GH response (% of control) 120 min” value is reported as 99 % of control.

Source of the values: patent US7452865B2, “Antagonistic analogs of GH RH (2003)” (The Administrare's of the Tulane Educational Fund, priority 2004, dated 2008).
